These are literature values, as cited in patent US20260116844A1, “LIPID NANOPARTICLE FORMULATION COMPRISING IONIZED LIPIDS WITH BRANCHED STRUCTURE, AND USE THEREOF” (SurgiNex Co., Ltd., priority 2022, published 2026).

The structures appear in SMILES notation.

In this series the test system is blood coagulation factor FVII.

What is called ED50 is the dose at which the effect has come halfway, by size or by number of responders. As for `CCCCC/C=C\C/C=C\CCCCCCCCC(CCCCCCCC/C=C\C/C=C\CCCCC)OC(=O)CCCN(C)C` [Dlin-MC3-DMA], the ED50 (mouse FVII model, siRNA delivery) is 5 µg/kg. Moreover, where the note is “mouse, in vivo”, the “times more effective than existing ionized lipids” value is recorded as “approximately 1000 times”.
